Data published in patent US20250098679A1, “HERBICIDAL PYRIDONE DERIVATIVES” (SYNGENTA CROP PROTECTION AG, priority 2021, published 2025).

Key:
Format in all cases: in vivo
[1] = system: Amaranthus palmeri (AMAPA); assay: Post-emergence Test, Amaranthus palmeri (AMAPA); set-up: key: 5=81-100%, 4=61-80%, 3=41-60%, 2=21-40%, 1=0-20% damage; conditions: evaluated after 13 days
Summary of the method: (§1)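 Percent plant damage was rated 13 days post-application on a 1–5 scale (1=0-20%, 5=81-100%). Application used an aqueous acetone (50:50)/0.5% Tween 20 spray, normally 1000 g/ha, with controlled glasshouse conditions (24/16 °C, 14 h light, 65% humidity).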

Zea mays (ZEAMX) [2] = assay: Post-emergence Test, Zea mays (ZEAMX); set-up: key to percentage damage caused to the plant, ZEAMX (five-point scale): 5=81-100%, 4=61-80%, 3=41-60%, 2=21-40%, 1=0-20% damage; conditions: evaluated after 13 days
Summary of the method: as §1

[3] = system: Amaranthus retoflexus (AMARE); assay: Pre-emergence Test, Amaranthus retoflexus (AMARE); conditions: 1000 g/ha, evaluated after 13 days
[4] = system: Amaranthus retoflexus (AMARE); assay: Post-emergence Test, Amaranthus retoflexus (AMARE); set-up: key to percentage damage caused to the plant, AMARE (five-point scale): 5=81-100%, 4=61-80%, 3=41-60%, 2=21-40%, 1=0-20% damage; conditions: evaluated after 13 days
Summary of the method: as §1

Setaria faberi (SETFA) [5] = assay: Pre-emergence Test, Setaria faberi (SETFA); conditions: 1000 g/ha, evaluated after 13 days
[6] = system: Ipomoea hederacea (IPOHE); assay: Post-emergence Test, Ipomoea hederacea (IPOHE); set-up: key to percentage damage caused to the plant, IPOHE (five-point scale): 5=81-100%, 4=61-80%, 3=41-60%, 2=21-40%, 1=0-20% damage; conditions: evaluated after 13 days
Summary of the method: as §1

[7] = system: Ipomoea hederacea (IPOHE); assay: Pre-emergence Test, Ipomoea hederacea (IPOHE); conditions: 1000 g/ha, evaluated after 13 days
Zea mays (ZEAMX) [8] = assay: Pre-emergence Test, Zea mays (ZEAMX); conditions: 1000 g/ha, evaluated after 13 days
[9] = system: Echinochloa crus-galli (ECHCG); assay: Pre-emergence Test, Echinochloa crus-galli (ECHCG); conditions: 1000 g/ha, evaluated after 13 days
Setaria faberi (SETFA) [10] = assay: Post-emergence Test, Setaria faberi (SETFA); set-up: key to percentage damage caused to the plant, SETFA (five-point scale): 5=81-100%, 4=61-80%, 3=41-60%, 2=21-40%, 1=0-20% damage; conditions: evaluated after 13 days
Summary of the method: as §1

[11] = system: Amaranthus palmeri (AMAPA); assay: Pre-emergence Test, Amaranthus palmeri (AMAPA); conditions: 1000 g/ha, evaluated after 13 days
[12] = system: Echinochloa crus-galli (ECHCG); assay: Post-emergence Test, Echinochloa crus-galli (ECHCG); set-up: key to percentage damage caused to the plant, ECHCG (five-point scale): 5=81-100%, 4=61-80%, 3=41-60%, 2=21-40%, 1=0-20% damage; conditions: evaluated after 13 days
Summary of the method: as §1

SMILES: COCCn1c(Cn2ccc(C(F)(F)F)n2)cc(=O)c(C(=O)O)c1-c1ccc(Cl)c(Cl)c1 [Compound 170, 2-(3,4-dichlorophenyl)-1-(2-methoxyethyl)-4-oxo-6-[[3-(trifluoromethyl)pyrazol-1-yl]methyl]pyridine-3-carboxylic acid]
- percentage damage caused to the plant, AMAPA (five-point scale) ([1]; 250 g/Ha): 0
- percentage damage caused to the plant, AMAPA (five-point scale) ([1]; 1000 g/ha): 1 (1=0-20%)
- percentage damage caused to the plant, ZEAMX (five-point scale) (Zea mays (ZEAMX) [2]; 250 g/Ha): 0
- percentage damage caused to the plant, ZEAMX (five-point scale) (Zea mays (ZEAMX) [2]; 1000 g/ha): 1 (1=0-20%)
- Pre-emergence Test AMARE, percentage damage caused to the plant (five-point scale) [3]: 0
- percentage damage caused to the plant, AMARE (five-point scale) ([4]; 250 g/Ha): 0
- percentage damage caused to the plant, AMARE (five-point scale) ([4]; 1000 g/ha): 1 (1=0-20%)
- Pre-emergence Test SETFA, percentage damage caused to the plant (five-point scale) (Setaria faberi (SETFA) [5]): 4 (4=61-80%)
- percentage damage caused to the plant, IPOHE (five-point scale) ([6]; 250 g/Ha): 3 (3=41-60%)
- percentage damage caused to the plant, IPOHE (five-point scale) ([6]; 1000 g/ha): 3 (3=41-60%)
- Pre-emergence Test IPOHE, percentage damage caused to the plant (five-point scale) [7]: 2 (2=21-40%)
- Pre-emergence Test ZEAMX, percentage damage caused to the plant (five-point scale) (Zea mays (ZEAMX) [8]): 0
- Pre-emergence Test ECHCG, percentage damage caused to the plant (five-point scale) [9]: 3 (3=41-60%)
- percentage damage caused to the plant, SETFA (five-point scale) (Setaria faberi (SETFA) [10]; 250 g/Ha): 3 (3=41-60%)
- percentage damage caused to the plant, SETFA (five-point scale) (Setaria faberi (SETFA) [10]; 1000 g/ha): 4 (4=61-80%)
- Pre-emergence Test AMAPA, percentage damage caused to the plant (five-point scale) [11]: 0
- percentage damage caused to the plant, ECHCG (five-point scale) ([12]; 250 g/Ha): 3 (3=41-60%)
- percentage damage caused to the plant, ECHCG (five-point scale) ([12]; 1000 g/ha): 4 (4=61-80%)

SMILES: CCOC(=O)c1nn(Cc2cc(=O)c(C(=O)O)c(-c3ccc(Cl)c(Cl)c3)n2CC)cc1C [Compound 123, 2-(3,4-dichlorophenyl)-6-[(3-ethoxycarbonyl-4-methyl-pyrazol-1-yl)methyl]-1-ethyl-4-oxo-pyridine-3-carboxylic acid]
- percentage damage caused to the plant, AMAPA (five-point scale) ([1]; 250 g/Ha): 0
- percentage damage caused to the plant, ZEAMX (five-point scale) (Zea mays (ZEAMX) [2]; 250 g/Ha): 0
- percentage damage caused to the plant, ZEAMX (five-point scale) (Zea mays (ZEAMX) [2]; 1000 g/ha): 1 (1=0-20%)
- Pre-emergence Test AMARE, percentage damage caused to the plant (five-point scale) [3]: 0
- percentage damage caused to the plant, AMARE (five-point scale) ([4]; 250 g/Ha): 0
- percentage damage caused to the plant, AMARE (five-point scale) ([4]; 1000 g/ha): 1 (1=0-20%)
- Pre-emergence Test SETFA, percentage damage caused to the plant (five-point scale) (Setaria faberi (SETFA) [5]): 1 (1=0-20%)
- percentage damage caused to the plant, IPOHE (five-point scale) ([6]; 250 g/Ha): 0
- percentage damage caused to the plant, IPOHE (five-point scale) ([6]; 1000 g/ha): 2 (2=21-40%)
- Pre-emergence Test IPOHE, percentage damage caused to the plant (five-point scale) [7]: 0
- Pre-emergence Test ZEAMX, percentage damage caused to the plant (five-point scale) (Zea mays (ZEAMX) [8]): 0
- Pre-emergence Test ECHCG, percentage damage caused to the plant (five-point scale) [9]: 0
- percentage damage caused to the plant, SETFA (five-point scale) (Setaria faberi (SETFA) [10]; 250 g/Ha): 0
- percentage damage caused to the plant, SETFA (five-point scale) (Setaria faberi (SETFA) [10]; 1000 g/ha): 1 (1=0-20%)
- Pre-emergence Test AMAPA, percentage damage caused to the plant (five-point scale) [11]: 1 (1=0-20%)
- percentage damage caused to the plant, ECHCG (five-point scale) ([12]; 250 g/Ha): 2 (2=21-40%)
- percentage damage caused to the plant, ECHCG (five-point scale) ([12]; 1000 g/ha): 1 (1=0-20%)

SMILES: CCn1c(Cn2cc(C(C)=O)c(C)n2)cc(=O)c(C(=O)O)c1-c1ccc(Cl)c(Cl)c1 [Compound 100, 6-[(4-acetyl-3-methyl-pyrazol-1-yl)methyl]-2-(3,4-dichlorophenyl)-1-ethyl-4-oxo-pyridine-3-carboxylic acid]
- percentage damage caused to the plant, AMAPA (five-point scale) ([1]; 250 g/Ha): 0
- percentage damage caused to the plant, AMAPA (five-point scale) ([1]; 1000 g/ha): 2 (2=21-40%)
- percentage damage caused to the plant, ZEAMX (five-point scale) (Zea mays (ZEAMX) [2]; 250 g/Ha): 0
- percentage damage caused to the plant, ZEAMX (five-point scale) (Zea mays (ZEAMX) [2]; 1000 g/ha): 1 (1=0-20%)
- Pre-emergence Test AMARE, percentage damage caused to the plant (five-point scale) [3]: 2 (2=21-40%)
- percentage damage caused to the plant, AMARE (five-point scale) ([4]; 250 g/Ha): 0
- percentage damage caused to the plant, AMARE (five-point scale) ([4]; 1000 g/ha): 2 (2=21-40%)
- Pre-emergence Test SETFA, percentage damage caused to the plant (five-point scale) (Setaria faberi (SETFA) [5]): 1 (1=0-20%)
- percentage damage caused to the plant, IPOHE (five-point scale) ([6]; 250 g/Ha): 0
- percentage damage caused to the plant, IPOHE (five-point scale) ([6]; 1000 g/ha): 3 (3=41-60%)
- Pre-emergence Test IPOHE, percentage damage caused to the plant (five-point scale) [7]: 2 (2=21-40%)
- Pre-emergence Test ZEAMX, percentage damage caused to the plant (five-point scale) (Zea mays (ZEAMX) [8]): 0
- Pre-emergence Test ECHCG, percentage damage caused to the plant (five-point scale) [9]: 0
- percentage damage caused to the plant, SETFA (five-point scale) (Setaria faberi (SETFA) [10]; 250 g/Ha): 0
- percentage damage caused to the plant, SETFA (five-point scale) (Setaria faberi (SETFA) [10]; 1000 g/ha): 2 (2=21-40%)
- Pre-emergence Test AMAPA, percentage damage caused to the plant (five-point scale) [11]: 2 (2=21-40%)
- percentage damage caused to the plant, ECHCG (five-point scale) ([12]; 250 g/Ha): 3 (3=41-60%)
- percentage damage caused to the plant, ECHCG (five-point scale) ([12]; 1000 g/ha): 2 (2=21-40%)
